One experiment deals with Pseudomonas aeruginosa. Description: Antibiofilm activity against Pseudomonas aeruginosa PA14 after 24 hrs by crystal violet staining based assay. The class given is functional, organism-based. The settings on record: PA14, 24 h.
The test system of experiment [1] is Staphylococcus aureus. In words: Antibiofilm activity against Staphylococcus aureus SH1000 after 48 hrs by crystal violet staining based assay. The class given is functional, organism-based. As to conditions: SH1000, 48 h.
Experiment [2] deals with Staphylococcus aureus. In words: Inhibition of planktonic growth of Staphylococcus aureus SH1000 after 48 hrs. Type of experiment: organism-based. The settings on record: SH1000, 48 h.
Experiment [3] deals with Escherichia coli. Description: Inhibition of planktonic growth of Escherichia coli TG1 after 24 hrs. The settings on record: TG1, 24 h. Type of experiment: organism-based.
Experiment [4] concerns Escherichia coli. In words: Antibiofilm activity against Escherichia coli TG1 after 24 hrs by crystal violet staining based assay. Type of experiment: functional, organism-based. As to conditions: TG1, 24 h.
The subject of experiment [5] is Salmonella typhimurium. In words: Inhibition of planktonic growth of Salmonella typhimurium ATCC 14028 after 24 hrs. The class given is organism-based, Salmonella enterica subsp. enterica serovar Typhimurium. The settings on record: Salmonella enterica, ATCC 14028, 24 h.
Experiment [6] relates to Salmonella typhimurium. In words: Antibiofilm activity against Salmonella typhimurium ATCC 14028 after 24 hrs by crystal violet staining based assay. The class given is functional, organism-based, Salmonella enterica subsp. enterica serovar Typhimurium. The settings on record: Salmonella enterica, ATCC 14028, 24 h.

As for `Nc1ncc(-c2ccccc2)n1CCCn1c(-c2ccccc2)cnc1N`, the IC50 turned out to be 25.2 µM in the experiment with Pseudomonas aeruginosa; 0.4 µM in the experiment on Staphylococcus aureus [1]; 572 µM with Staphylococcus aureus [2]; 62.4 µM with Escherichia coli [3]; 26.6 µM in the experiment on Escherichia coli [4]; 147 µM in the experiment with Salmonella typhimurium [5]. The IC50 with Salmonella typhimurium [6] was 15.3 µM.

Regarding `Nc1ncc(-c2ccc(Cl)cc2)n1CCCn1c(-c2ccc(Cl)cc2)cnc1N`, the IC50 in the experiment with Pseudomonas aeruginosa stood at 3.1 µM; in the experiment with Staphylococcus aureus [1], 26.4 µM; in the experiment with Staphylococcus aureus [2], 26.4 µM; with Escherichia coli [3] it was 7.56 µM; in the experiment on Escherichia coli [4], 4.5 µM; in the experiment on Salmonella typhimurium [5] it was 11 µM. The same compound had an IC50 in the experiment on Salmonella typhimurium [6] of 4.1 µM.

For `Fc1ccc(-c2cnc(NCCCCNc3ncc(-c4ccc(F)cc4)[nH]3)[nH]2)cc1`, the IC50 with Pseudomonas aeruginosa is 5.6 µM; with Staphylococcus aureus [1] it was 40.6 µM; in the experiment with Staphylococcus aureus [2] it was 144 µM; in the experiment with Escherichia coli [3], 4.55 µM; in the experiment on Escherichia coli [4], 6.5 µM; with Salmonella typhimurium [5], 46 µM. Further, in the experiment on Salmonella typhimurium [6], 5.9 µM corresponded to half-maximal inhibition (IC50).

`Nc1ncc(-c2ccc(F)cc2)n1CCCn1c(-c2ccc(F)cc2)cnc1N`: the IC50 in the experiment with Pseudomonas aeruginosa came out at 11.6 µM; in the experiment with Staphylococcus aureus [1], 171 µM; in the experiment with Staphylococcus aureus [2], 124 µM; with Escherichia coli [3], 10.7 µM; in the experiment with Escherichia coli [4] it was 7.5 µM; in the experiment on Salmonella typhimurium [5] it was 103 µM. Besides, the IC50 in the experiment with Salmonella typhimurium [6] was determined as 7.4 µM.

For `Nc1ncc(-c2ccc(Br)cc2)n1CCCCCCCn1c(-c2ccc(Br)cc2)cnc1N`, the IC50 was 1.1 µM in the experiment on Pseudomonas aeruginosa; 5.5 µM in the experiment with Staphylococcus aureus [1]; 8.02 µM in the experiment on Staphylococcus aureus [2]; over 400 µM in the experiment on Escherichia coli [3]; 2.3 µM in the experiment with Escherichia coli [4]; over 400 µM with Salmonella typhimurium [5]. Also, the IC50 with Salmonella typhimurium [6] was determined as 1.7 µM.

For the compound `Clc1ccc(-c2cnc(NCCCCCCNc3ncc(-c4ccc(Cl)cc4)[nH]3)[nH]2)cc1`, the IC50 came out at 80.4 µM with Pseudomonas aeruginosa; 150 µM in the experiment on Staphylococcus aureus [1]; 327 µM in the experiment on Staphylococcus aureus [2]; 96.6 µM in the experiment with Escherichia coli [3]; 24.8 µM with Escherichia coli [4]; 529 µM in the experiment with Salmonella typhimurium [5]. The midpoint of inhibition in the experiment on Salmonella typhimurium [6], the IC50, lay at 30.5 µM.

As to `c1ccc(-c2cnc(NCCCCCCCNc3ncc(-c4ccccc4)[nH]3)[nH]2)cc1`, the IC50 in the experiment with Pseudomonas aeruginosa is 4.6 µM; with Staphylococcus aureus [1], 400 µM; with Staphylococcus aureus [2], 689 µM; in the experiment with Escherichia coli [3], 12.9 µM; in the experiment on Escherichia coli [4], 11.8 µM; with Salmonella typhimurium [5] it was over 800 µM. In the experiment with Salmonella typhimurium [6], this compound gave an IC50 of 12.6 µM.

As for `Clc1ccc(-c2cnc(NCCCCNc3ncc(-c4ccc(Cl)cc4)[nH]3)[nH]2)cc1`, the IC50 was found to be 13 µM with Pseudomonas aeruginosa; 200 µM in the experiment with Staphylococcus aureus [1]; 158 µM with Staphylococcus aureus [2]; 31.6 µM in the experiment on Escherichia coli [3]; 9.3 µM in the experiment on Escherichia coli [4]; 41.6 µM in the experiment with Salmonella typhimurium [5]. In addition, the half-maximal inhibitory concentration (IC50) with Salmonella typhimurium [6] is 12.3 µM.

With `Clc1ccc(-c2cnc(NCCCNc3ncc(-c4ccc(Cl)cc4)[nH]3)[nH]2)cc1`, the IC50 in the experiment with Pseudomonas aeruginosa amounted to 5.6 µM; with Staphylococcus aureus [1], 13 µM; in the experiment with Staphylococcus aureus [2], 23.5 µM; in the experiment on Escherichia coli [3], 14.7 µM; with Escherichia coli [4] it was 4.9 µM; in the experiment with Salmonella typhimurium [5] it was 11.4 µM. The IC50 in the experiment with Salmonella typhimurium [6] was determined as 2.7 µM.

Consider `Nc1ncc(-c2ccccc2)n1CCCCCn1c(-c2ccccc2)cnc1N`, for which the IC50 in the experiment on Pseudomonas aeruginosa is 33.1 µM; in the experiment on Staphylococcus aureus [1] it was 96.1 µM; with Staphylococcus aureus [2], 85.7 µM; with Escherichia coli [3], over 800 µM; with Escherichia coli [4] it was 10.5 µM; with Salmonella typhimurium [5], 89.8 µM. The compound also gave a half-inhibitory concentration (IC50) with Salmonella typhimurium [6] of 20.2 µM.

Turning to `Fc1ccc(-c2cnc(NCCCCCCCCNc3ncc(-c4ccc(F)cc4)[nH]3)[nH]2)cc1`, the IC50 was 15.2 µM with Pseudomonas aeruginosa; 372 µM in the experiment with Staphylococcus aureus [1]; 250 µM in the experiment with Staphylococcus aureus [2]; 47.6 µM with Escherichia coli [3]; 31.5 µM with Escherichia coli [4]; over 800 µM in the experiment on Salmonella typhimurium [5]. In the experiment on Salmonella typhimurium [6], this compound returned an IC50 of 11.6 µM.

Consider `Nc1ncc(-c2ccc(Cl)cc2)n1CCCCCCCCn1c(-c2ccc(Cl)cc2)cnc1N`, for which the concentration for half-maximal inhibition (IC50) with Pseudomonas aeruginosa came out at 1.3 µM; in the experiment with Staphylococcus aureus [1], 6.1 µM; in the experiment with Staphylococcus aureus [2], 3.9 µM; in the experiment on Escherichia coli [3], 2.8 µM; with Escherichia coli [4] it was 1.1 µM; with Salmonella typhimurium [5], 47.8 µM. The same compound displayed an IC50 in the experiment on Salmonella typhimurium [6] of 2 µM.

For the compound `Nc1ncc(-c2ccc(F)cc2)n1CCCCCCCn1c(-c2ccc(F)cc2)cnc1N`, the IC50 is 7.1 µM in the experiment with Pseudomonas aeruginosa; 23.7 µM in the experiment with Staphylococcus aureus [1]; 34 µM in the experiment on Staphylococcus aureus [2]; over 100 µM in the experiment on Escherichia coli [3]; 7.2 µM in the experiment with Escherichia coli [4]; 50 µM with Salmonella typhimurium [5]. In the experiment on Salmonella typhimurium [6], this compound came in with an IC50 of 2.9 µM.

On to `Nc1ncc(-c2ccccc2)n1CCCCn1c(-c2ccccc2)cnc1N`, for which the 50% inhibitory concentration (IC50) with Pseudomonas aeruginosa came out at 23.6 µM; in the experiment with Staphylococcus aureus [1], 275 µM; in the experiment with Staphylococcus aureus [2], 255 µM; in the experiment on Escherichia coli [3] it was 50.4 µM; in the experiment with Escherichia coli [4], 27.5 µM; with Salmonella typhimurium [5] it was 59.3 µM. Moreover, the midpoint of inhibition with Salmonella typhimurium [6], the IC50, lay at 13.5 µM.

With `c1ccc(-c2cnc(NCCCCNc3ncc(-c4ccccc4)[nH]3)[nH]2)cc1`, the IC50 was determined as 5.9 µM in the experiment on Pseudomonas aeruginosa; 28.6 µM in the experiment with Staphylococcus aureus [1]; 301 µM in the experiment with Staphylococcus aureus [2]; 6.81 µM in the experiment with Escherichia coli [3]; 12.3 µM in the experiment on Escherichia coli [4]; 49.4 µM in the experiment with Salmonella typhimurium [5]. Further, half-maximal inhibition with Salmonella typhimurium [6] (IC50) required 7.7 µM.

Turning to `c1ccc(-c2cnc(NCCCCCCCCNc3ncc(-c4ccccc4)[nH]3)[nH]2)cc1`, the concentration for half-maximal inhibition (IC50) in the experiment on Pseudomonas aeruginosa was 21.3 µM; in the experiment on Staphylococcus aureus [1], 300 µM; with Staphylococcus aureus [2], 230 µM; in the experiment with Escherichia coli [3], 48.7 µM; with Escherichia coli [4], 19.3 µM; with Salmonella typhimurium [5] it was over 800 µM. The compound further returned an IC50 in the experiment with Salmonella typhimurium [6] of 11.2 µM.

As to `Brc1ccc(-c2cnc(NCCCNc3ncc(-c4ccc(Br)cc4)[nH]3)[nH]2)cc1`, the IC50 in the experiment with Pseudomonas aeruginosa was 11.2 µM; in the experiment with Staphylococcus aureus [1] it was 24.2 µM; with Staphylococcus aureus [2], 29.2 µM; in the experiment with Escherichia coli [3], 4.77 µM; in the experiment on Escherichia coli [4] it was 4.1 µM; in the experiment on Salmonella typhimurium [5] it was 11.9 µM. This compound gave an IC50 in the experiment with Salmonella typhimurium [6] of 5.5 µM.

Turning to `Nc1ncc(-c2ccccc2)n1CCCCCCn1c(-c2ccccc2)cnc1N`, the IC50 in the experiment with Pseudomonas aeruginosa is 4 µM; with Staphylococcus aureus [1], 51.3 µM; in the experiment with Staphylococcus aureus [2] it was 53.8 µM; with Escherichia coli [3], over 800 µM; in the experiment with Escherichia coli [4], 2.9 µM; in the experiment with Salmonella typhimurium [5], 100 µM. This compound yielded a half-inhibitory concentration (IC50) in the experiment on Salmonella typhimurium [6] of 3 µM.

For the compound `Nc1ncc(-c2ccc(Cl)cc2)n1CCCCCn1c(-c2ccc(Cl)cc2)cnc1N`, the half-inhibitory concentration (IC50) in the experiment with Pseudomonas aeruginosa amounted to 6.6 µM; with Staphylococcus aureus [1], 13.5 µM; in the experiment with Staphylococcus aureus [2], 24.3 µM; in the experiment with Escherichia coli [3], 13.4 µM; in the experiment with Escherichia coli [4] it was 12 µM; in the experiment on Salmonella typhimurium [5] it was 19.1 µM. Also, the 50% inhibitory concentration (IC50) in the experiment on Salmonella typhimurium [6] was found to be 5.1 µM.

Consider `Nc1ncc(-c2ccc(F)cc2)n1CCCCCCCCn1c(-c2ccc(F)cc2)cnc1N`, for which the IC50 in the experiment on Pseudomonas aeruginosa stood at 12.2 µM; with Staphylococcus aureus [1], 22.4 µM; with Staphylococcus aureus [2], 11.7 µM; in the experiment with Escherichia coli [3], 7.13 µM; with Escherichia coli [4] it was 7 µM; in the experiment with Salmonella typhimurium [5] it was 100 µM. This compound displayed an IC50 in the experiment with Salmonella typhimurium [6] of 1.5 µM.

Turning to `Brc1ccc(-c2cnc(NCCCCCNc3ncc(-c4ccc(Br)cc4)[nH]3)[nH]2)cc1`, the IC50 in the experiment with Pseudomonas aeruginosa was 13.4 µM; in the experiment on Staphylococcus aureus [1], 12 µM; in the experiment on Staphylococcus aureus [2], 26.4 µM; in the experiment on Escherichia coli [3] it was 22.4 µM; in the experiment on Escherichia coli [4], 10.5 µM; with Salmonella typhimurium [5] it was 35.9 µM. Also, it took 6.5 µM to reach half-maximal inhibition with Salmonella typhimurium [6] (IC50).

Broadly, the IC50 is the point on the concentration scale where inhibition reaches its midpoint.
